Reference: doi:10.1101/2025.01.28.635346v1 (bioRxiv, 2025)
Bridge positions count the residues as written; N and C are the ends. Side chains are listed from the residue outwards. Peptide text beside a SMILES is read from it. * marks the point of attachment. Butanoyl(4-(4-I-phenyl)) = O=C(CCCc1ccc(I)cc1)*; PEG2 = NCCOCCOCCC(=O)O

Experiments:
integrin αIIbβ3 = target: T1, integrin αIIbβ3 (Homo sapiens, UniProt P05106+P08514); test: ELISA competition assay, integrin αIIbβ3; format: binding
T1 sequence (P08514 32-993 limits assumed): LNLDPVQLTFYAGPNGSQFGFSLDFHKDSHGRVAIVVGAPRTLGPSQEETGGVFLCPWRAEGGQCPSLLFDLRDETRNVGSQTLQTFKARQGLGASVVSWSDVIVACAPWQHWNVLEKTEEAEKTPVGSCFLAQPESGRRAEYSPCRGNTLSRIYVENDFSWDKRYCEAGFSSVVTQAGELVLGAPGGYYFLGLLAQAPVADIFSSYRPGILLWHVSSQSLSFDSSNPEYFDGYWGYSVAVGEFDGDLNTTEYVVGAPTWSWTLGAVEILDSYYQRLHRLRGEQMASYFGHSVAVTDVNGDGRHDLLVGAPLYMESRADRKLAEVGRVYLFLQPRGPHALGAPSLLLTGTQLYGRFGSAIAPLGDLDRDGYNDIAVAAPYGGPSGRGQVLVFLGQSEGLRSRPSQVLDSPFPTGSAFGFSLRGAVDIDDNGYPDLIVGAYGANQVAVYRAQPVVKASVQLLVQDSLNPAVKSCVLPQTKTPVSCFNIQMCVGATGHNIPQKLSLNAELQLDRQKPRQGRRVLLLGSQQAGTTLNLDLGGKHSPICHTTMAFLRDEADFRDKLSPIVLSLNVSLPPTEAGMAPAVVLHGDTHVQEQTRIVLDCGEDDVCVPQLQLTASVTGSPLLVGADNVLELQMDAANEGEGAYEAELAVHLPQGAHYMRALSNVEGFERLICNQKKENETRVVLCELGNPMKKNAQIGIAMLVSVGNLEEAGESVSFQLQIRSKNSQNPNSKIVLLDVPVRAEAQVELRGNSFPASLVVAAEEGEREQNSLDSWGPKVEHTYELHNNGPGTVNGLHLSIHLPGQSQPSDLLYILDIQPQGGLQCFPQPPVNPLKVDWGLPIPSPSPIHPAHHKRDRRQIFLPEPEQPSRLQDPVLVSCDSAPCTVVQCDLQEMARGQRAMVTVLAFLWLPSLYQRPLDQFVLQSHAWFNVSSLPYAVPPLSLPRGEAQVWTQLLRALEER
T1 sequence (P05106 27-718 limits assumed): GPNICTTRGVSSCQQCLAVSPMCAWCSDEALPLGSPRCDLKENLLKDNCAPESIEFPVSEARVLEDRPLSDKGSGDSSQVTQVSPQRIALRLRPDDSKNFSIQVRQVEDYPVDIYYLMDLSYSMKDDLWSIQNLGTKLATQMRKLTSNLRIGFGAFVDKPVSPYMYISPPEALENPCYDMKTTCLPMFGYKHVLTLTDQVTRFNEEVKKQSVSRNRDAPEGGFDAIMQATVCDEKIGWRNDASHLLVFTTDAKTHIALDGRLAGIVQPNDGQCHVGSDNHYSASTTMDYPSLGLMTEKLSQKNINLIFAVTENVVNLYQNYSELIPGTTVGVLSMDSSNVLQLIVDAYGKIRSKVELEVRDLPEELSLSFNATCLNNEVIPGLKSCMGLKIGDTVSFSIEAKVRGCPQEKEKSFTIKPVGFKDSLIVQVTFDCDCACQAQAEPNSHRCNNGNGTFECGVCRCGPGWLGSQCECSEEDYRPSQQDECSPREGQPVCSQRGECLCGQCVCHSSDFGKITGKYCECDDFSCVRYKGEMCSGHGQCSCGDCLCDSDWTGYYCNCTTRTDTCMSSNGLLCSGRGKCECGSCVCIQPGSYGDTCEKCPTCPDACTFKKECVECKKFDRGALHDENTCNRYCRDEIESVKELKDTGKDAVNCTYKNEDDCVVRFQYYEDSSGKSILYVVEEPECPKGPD

PDE4D2 = PDE4D2 (Homo sapiens, UniProt Q08499); test: Safetyscan47 Non-Kinase Enzymes Enzymatic, Inhibitor; format: biochemical; details: for Emax: read-out: Max Response
Sequence of PDE4D2 (Q08499 303-809 limits assumed): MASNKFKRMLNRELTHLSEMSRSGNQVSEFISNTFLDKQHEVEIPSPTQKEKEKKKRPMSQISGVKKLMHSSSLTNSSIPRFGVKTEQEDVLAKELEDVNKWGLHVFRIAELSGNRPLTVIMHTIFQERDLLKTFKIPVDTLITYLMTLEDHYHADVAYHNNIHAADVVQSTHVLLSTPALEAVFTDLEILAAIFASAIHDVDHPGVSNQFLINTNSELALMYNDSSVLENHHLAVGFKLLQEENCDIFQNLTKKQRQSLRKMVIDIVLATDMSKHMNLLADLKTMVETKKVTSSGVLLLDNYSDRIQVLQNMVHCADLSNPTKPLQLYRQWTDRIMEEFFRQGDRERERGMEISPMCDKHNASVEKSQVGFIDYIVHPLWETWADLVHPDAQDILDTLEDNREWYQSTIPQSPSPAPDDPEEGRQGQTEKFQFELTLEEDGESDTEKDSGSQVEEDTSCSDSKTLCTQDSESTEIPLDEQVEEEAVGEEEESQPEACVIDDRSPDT

GR = target: T2, GR (Homo sapiens, UniProt P04150); test: Safetyscan47 NHR Protein Interaction, Antagonist; format: cell-based; details: for Emax: read-out: Max Response
T2 sequence (P04150 1-777): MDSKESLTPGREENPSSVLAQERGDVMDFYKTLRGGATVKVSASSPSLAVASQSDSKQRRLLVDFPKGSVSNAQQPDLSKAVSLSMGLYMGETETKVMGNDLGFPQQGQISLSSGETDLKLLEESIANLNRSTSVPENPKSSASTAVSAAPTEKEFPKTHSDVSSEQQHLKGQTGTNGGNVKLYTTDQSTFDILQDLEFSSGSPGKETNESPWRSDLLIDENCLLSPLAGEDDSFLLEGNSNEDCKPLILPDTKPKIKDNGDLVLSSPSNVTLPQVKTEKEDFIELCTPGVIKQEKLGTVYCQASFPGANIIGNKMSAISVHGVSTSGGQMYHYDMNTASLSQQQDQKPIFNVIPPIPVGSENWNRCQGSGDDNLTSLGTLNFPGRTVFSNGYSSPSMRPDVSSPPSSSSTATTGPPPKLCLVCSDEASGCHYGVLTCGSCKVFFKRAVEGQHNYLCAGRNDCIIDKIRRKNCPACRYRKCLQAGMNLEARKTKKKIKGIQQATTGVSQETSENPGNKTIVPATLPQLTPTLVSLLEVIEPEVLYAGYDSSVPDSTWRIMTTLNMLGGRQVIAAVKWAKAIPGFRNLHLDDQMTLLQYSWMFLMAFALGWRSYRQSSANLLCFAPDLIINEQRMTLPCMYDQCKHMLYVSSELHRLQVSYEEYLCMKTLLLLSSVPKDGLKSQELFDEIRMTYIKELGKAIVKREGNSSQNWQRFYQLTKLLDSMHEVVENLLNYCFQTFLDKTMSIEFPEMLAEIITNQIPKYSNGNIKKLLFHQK

Row | SMILES | IC50 (integrin αIIbβ3) | IC50 (PDE4D2) | Emax (PDE4D2) | IC50 (GR) | Emax (GR)
1 | CC[C@H](C)[C@H](NC(=O)[C@H](CC(C)C)NC(=O)[C@H](CC(=O)O)NC(=O)CNC(=O)[C@H](CCCNC(=N)N)NC(=O)[C@@H](NC(=O)[C@H](Cc1ccccc1)NC(=O)[C@H](Cc1ccc(O)cc1)NC(=O)[C@@H]1CCC(=O)NCC(=O)NCC(=O)N[C@@H](CCCNC(=N)N)C(=O)NCC(=O)N[C@@H](Cc2c[nH]cn2)C(=O)N[C@@H](C(C)C)C(=O)N2CCC[C@H]2C(=O)N1)C(C)C)C(=O)N[C@@H](CO)C(=O)N[C@@H](Cc1ccccc1)C(=O)N[C@@H](Cc1ccc(O)cc1)C(=O)N[C@@H](CCCCN)C(=O)O [lassotide 36] (GGRGHVPEYFVRGDLISFYK-OH; lactam N-8) | 0.332 µM | > 45 µM | 0% | > 45 µM | 0%
2 | CC[C@H](C)[C@H](NC(=O)[C@H](CC(C)C)NC(=O)[C@H](CC(=O)O)NC(=O)CNC(=O)[C@H](CCCNC(=N)N)NC(=O)[C@@H](NC(=O)[C@H](Cc1ccccc1)NC(=O)[C@H](Cc1ccc(O)cc1)NC(=O)[C@@H]1CCC(=O)NCC(=O)NCC(=O)N[C@@H](CCCNC(=N)N)C(=O)NCC(=O)N[C@@H](Cc2c[nH]cn2)C(=O)N[C@@H](C(C)C)C(=O)N2CCC[C@H]2C(=O)N1)C(C)C)C(=O)N[C@@H](CO)C(=O)N[C@@H](Cc1ccccc1)C(=O)N[C@@H](Cc1ccc(O)cc1)C(=O)N[C@@H](CCCCNC(=O)CCOCCOCCNC(=O)CCCc1ccc(I)cc1)C(=O)O [lassotide 47] (GGRGHVPEYFVRGDLISFYK([PEG2-Butanoyl(4-(4-I-phenyl))])-OH; lactam N-8) | 1.49 µM | > 45 µM | 28.5% | > 45 µM | 0%
